ChEMBL document CHEMBL1150514, “Synthesis and HIV-1 reverse transcriptase inhibition properties of two new methylenephosphonate analogues of 3-azido-3-deoxythymidine-5-triphosphate” (Bioorg Med Chem Lett, 1995)

Target: Human immunodeficiency virus type 1 reverse transcriptase (Human immunodeficiency virus 1, UniProt Q72547)
Assay: Inhibitory activity against HIV-1 reverse transcriptase

IC50 [µM] | SMILES
39 | Cc1cn(C2CC(N=[N+]=[N-])C(COP(=O)(O)CCCP(=O)(O)O)O2)c(=O)[nH]c1=O (stereo not drawn)
48 | Cc1cn(C2CC(N=[N+]=[N-])C(COP(=O)(O)CP(=O)(O)CP(=O)(O)O)O2)c(=O)[nH]c1=O (stereo not drawn)
0.043 | Cc1cn([C@H]2C[C@H](N=[N+]=[N-])[C@@H](CO[P@](=O)(O)O[P@](=O)(O)OP(=O)(O)O)O2)c(=O)[nH]c1=O [ZIDOVUDINE TRIPHOSPHATE]
